{"source": "patent US9745337B2", "about": "“Complex compounds of germanium, methods for producing same, and drugs” (priority 2012, dated 2017)", "key": {"[1]": {"details": "in vivo; cited from earlier work"}, "HSV-2": {"tested_on": "HSV-2", "details": "Vero cells, cited from earlier work"}, "[2]": {"details": "in the presence of low, inefficient concentrations of xanthogenate; cited from earlier work"}, "[3]": {"assay": "biopharmaceutical and biorelevant solubility (pH media, FaSSIF, FeSSIF)", "protocol": "For this purpose, we studied the solubilities of these compounds at various pH values that correspond to the gastrointestinal fluids (for the intestinal fluid: pH is 1.2; for the duodenal fluid: pH 4.4; and for the small intestine fluid: pH 6.8).\nOne biopharmaceutical solubility value which allows describing a therapeutic drug (TD) as a compound having “high” or “low” solubility, is the dose/solubility ratio (D/S). The dose/solubility ratio is determined as follows: maximal dose (D) (mg)/water solubility (S) (mg/mL).\nImportantly, biopharmaceutical solubility is not a constant value for a given therapeutic drug (TD); rather, it depends on the maximal registered dosage of an immediate-release TD intended for systemic effects.\nOne more biopharmaceutical value is the solubility in biorelevant media. These are dissolution media such that approach the human body fluids (intestinal fluid and gastric fluid) as closely as possible in terms of chemical composition and in terms of physicochemical properties (pH, osmomolality, buffer capacity, and surface tension). The simulation of physiological conditions is provided by introducing surfactants (lecithin and sodium taurocholate) into these media. There are two major types of biorelevant media, namely: an artificial intestinal fluid in an empty stomach (fasted state simulated intestinal fluid (FaSSIF)) and after eating (fed state simulated intestinal fluid (FeSSIF))."}, "[4]": {"tested_on": "herpes simplex viruses type 1 (HSV-1)", "details": "cited from earlier work"}, "HSV-1 [5]": {"tested_on": "HSV-1", "details": "Vero cells, cited from earlier work"}, "[6]": {"details": "cited from earlier work"}, "[7]": {"assay": "octanol-water partition coefficient log P", "type": "physicochemical", "details": "n-octanol and water", "description": "A criterion that can serve as a measure of the absorption of the solute through the wall of the small intestine is permeability, i.e., the fraction of the substance permeating through the intestinal wall. The physicochemical property of a molecule that makes the greatest contribution to permeability is liphophilicity. A measure of lipophilicity to be used in indirect assessment of intestinal permeability is the octanol-water partition coefficient, log P, which is the logarithm of the ratio of concentrations of an unionized substance in the system of two immiscible liquids (n-octanol and water). […]"}, "HSV-1 [8]": {"tested_on": "HSV-1", "details": "combination of D609 and acyclovir; cited from earlier work"}, "HSV-1 “L2/R” virus": {"tested_on": "HSV-1 “L2/R” virus", "type": "cell-based, herpes simplex virus type I", "details": "concentrations of 500 mcg/mL and 250 mcg/mL, VERO", "protocol": "The criteria used to evaluate the antiviral activity were: the ability to prevent the development of a virus-induced cytopathic effect and the ability to inhibit reproduction of the virus in the cell culture. Test samples were inserted into the nutrient medium 1 hour after the culture was infected with a certain dose of the virus (the therapeutic scheme). The antiviral activity of the samples and virus-induced cytopathic effects in the cell culture were monitored every day using light microscopy as the degree of morphological alteration of a cell monolayer. The endpoint was on the 4th day of contact of the cells with the infectious material, after a well-defined (100%) cytopathic effect appeared in control samples (positive control). The presence of antiviral activity in samples of organogermanium compounds according to the invention was ascertained as the difference between the viral titers measured in the experiment and in the control."}, "[9]": {"details": "reference for high intestinal permeability; cited from earlier work"}, "Varicella-Zoster virus": {"tested_on": "Varicella-Zoster virus", "details": "S-acetyl glutathione 0.35 mg/mL with three acyclovir concentrations, strongest at 0.9 mcg/mL acyclovir; cited from earlier work"}, "[10]": {"tested_on": "herpes simplex virus (HSV-1)", "details": "cited from earlier work"}}, "note": "Read-outs that look alike come from different tables or passages of the source.", "data": [{"smiles": "Nc1nc2c(ncn2COCCO)c(=O)[nH]1", "note": "[acyclovir, 9-[(2-hydroxyethoxy)methyl] guanine]", "values": [{"measurement": "bioavailability", "setting": "[1]", "value": "15-20%"}, {"measurement": "effect of combination against HSV-2", "setting": "HSV-2; acyclovir 0.1-3.4 mcg/mL with carbocyclic oxetanocin G 0.04-0.54 mcg/mL", "value": "synergistic effect"}, {"measurement": "effect of combination against HSV-2", "setting": "HSV-2; acyclovir 0.1-3.4 mcg/mL with oxetanocin G 0.4-4 mcg/mL", "value": "synergistic effect"}, {"measurement": "increase of acyclovir activity in a cell culture", "setting": "[2]", "value": "fivefold"}, {"measurement": "Solubility (“high”/“low”)", "setting": "[3]; FaSSIF", "value": "“low”"}, {"measurement": "Solubility (“high”/“low”)", "setting": "[3]; FeSSIF", "value": "“low”"}, {"measurement": "Solubility (“high”/“low”)", "setting": "[3]; pH 1.2", "value": "“high” (When D/S≦250 mL, the TD has “high” solubility in the relevant aqueous solution)"}, {"measurement": "Solubility (“high”/“low”)", "setting": "[3]; pH 4.4-4.5 (4.4 for the tested compounds, 4.5 for acyclovir)", "value": "low and “low”"}, {"measurement": "Solubility (“high”/“low”)", "setting": "[3]; pH 6.8", "value": "low and “low”"}, {"measurement": "solubility", "setting": "[3]; pH 6.8", "value": 2400, "unit": "µg/mL"}, {"measurement": "concentration for 50% inhibition of the virus-induced cytopathic effect", "setting": "[4]; acyclovir used alone", "value": 0.4, "unit": "µg/mL"}, {"measurement": "acyclovir concentration for 50% inhibition of the virus-induced cytopathic effect", "setting": "[4]; combined with bis-netropsin 0.15 mcg/mL", "value": 0.15, "unit": "µg/mL"}, {"measurement": "acyclovir concentration for 50% inhibition of the virus-induced cytopathic effect", "setting": "[4]; combined with netropsin 2.5 mcg/mL", "value": 0.075, "unit": "µg/mL"}, {"measurement": "effect of combination against HSV-1", "setting": "HSV-1 [5]; acyclovir 0.04-0.4 mcg/mL with carbocyclic oxetanocin G 0.01-0.2 mcg/mL", "value": "synergistic effect"}, {"measurement": "effect of combination against HSV-1", "setting": "HSV-1 [5]; acyclovir 0.04-0.4 mcg/mL with oxetanocin G 0.4-5.4 mcg/mL", "value": "synergistic effect"}, {"measurement": "solubility", "setting": "physchem; FaSSIF (fasted state simulated intestinal fluid), fassif", "value": 1440, "unit": "µg/mL"}, {"measurement": "solubility", "setting": "physchem; FeSSIF (fed state simulated intestinal fluid), fessif", "value": 1380, "unit": "µg/mL"}, {"measurement": "solubility", "setting": "physchem; aqueous dissolution medium at pH 1.2, pH 1.2, simulated gastric fluid", "value": 3500, "unit": "µg/mL"}, {"measurement": "solubility", "setting": "physchem; aqueous dissolution medium at pH 4.5, pH 4.4, aqueous buffer", "value": 2600, "unit": "µg/mL"}, {"measurement": "solubility in hydrophobic systems", "setting": "[6]", "value": "almost insoluble"}, {"measurement": "logP", "setting": "[7]", "value": -1.57}]}, {"smiles": "S=C(S)OC1CC2CC1C1CCCC21", "note": "(centres unmarked) [D609, tricyclodecan-9-yl-xanthogenate]", "values": [{"measurement": "survival of animals infected with HSV-1", "setting": "HSV-1 [8]", "value": "survival of all animals"}]}, {"smiles": "Nc1ncnc2c1ncn2[C@@H]1O[C@H](CO)[C@@H](O)[C@@H]1O", "note": "[vidarabine, 9-β-D-arabinofuranosyl adenine]", "values": [{"measurement": "water solubility (in words)", "setting": "[6]", "value": "poorly soluble"}]}, {"smiles": "Nc1nc2c(ncn2COC(CO)CO)c(=O)[nH]1", "note": "[gancyclovir, 9-[(1,3-dihydroxy-2-propoxy)methyl]guanine]", "values": [{"measurement": "bioavailability", "setting": "[1]", "value": 5, "unit": "%"}, {"measurement": "reduction in gancyclovir concentration", "setting": "[4]; combination with netropsin and bis-netropsin", "value": "fivefold"}]}, {"smiles": "CC(C)[C@H](N)C(=O)OCCOCn1cnc2c(=O)[nH]c(N)nc21", "note": "[valacyclovir, 2-(guanin-9-ylmethoxy)ethyl L-valine ether]", "values": [{"measurement": "reduction of the infectious activity of the HSV-1 “L2/R” virus", "setting": "HSV-1 “L2/R” virus", "value": 1.5, "unit": "log"}]}, {"smiles": "COCCc1ccc(OCC(O)CNC(C)C)cc1", "note": "(centres unmarked) [metoprolol]", "values": [{"measurement": "log P of reference substance", "setting": "[9]", "value": 1.72}]}, {"smiles": "CC(=O)SC[C@H](NC(=O)CC[C@H](N)C(=O)O)C(=O)NCC(=O)O", "note": "[S-acetyl glutathione]", "values": [{"measurement": "effect of compositions with acyclovir against Varicella-Zoster virus", "setting": "Varicella-Zoster virus", "value": "noticeable synergistic effect"}, {"measurement": "effect of combination with acyclovir against HSV-1", "setting": "[10]; S-acetyl glutathione combined with acyclovir", "value": "strong synergistic effect"}, {"measurement": "concentration from which efficient against HSV-1", "setting": "[10]", "value": "≥ 0.35", "unit": "mg/mL"}]}, {"smiles": "Nc1nc2c(ncn2CCC(CO)CO)c(=O)[nH]1", "note": "[pencyclovir, 9-[4-hydroxy-3-(hydroxymethyl)butyl]guanine]", "values": [{"measurement": "bioavailability", "setting": "[1]", "value": 1.5, "unit": "%"}, {"measurement": "water solubility", "setting": "[6]; at 20° C.", "value": 1740, "unit": "µg/mL"}]}]}
